Counter-ions that a name gives are not always drawn.
Tests used:
[1] = tested on: bacterial strains that express KPC β-lactamases; assay: Synergy MIC / standard BLI potentiation MIC assay, strains expressing KPC β-lactamases; assay type: cell-based; details: more active for at least one KPC strain and/or better spectrum of activity than Avibactam; in the presence of a β-lactam
Protocol: The experimental protocol was performed according to Clinical and Laboratory Standards Institute (CLSI) guidelines with modifications as described below (CLSI guidelines can be derived from the CLSI document M07-A9 published in January 2012: “Methods for Dilution Antimicrobial Susceptibility Tests for Bacteria That Grow Aerobically; Approved Standard-Ninth Edition”).
To prepare for MIC testing, frozen glycerol stocks of clinical isolates (Klebsiella pneumoniae, Eschericia coli, Enterobacter spp, Citrobacter spp, or Pseudomonas aeruginosa) were used to streak for isolated colonies on rich, non-selective, tryptic soy agar containing 5% sheep's blood (TSAB). Frozen glycerol stocks of laboratory engineered, isogenic E. coli strains, which contain cloned β-lactamase expressing plasmids were used to streak for isolated colonies on rich, selective LB agar supplemented with 25 μg/mL tetracycline to maintain the plasmid. All strains were incubated at 37° C. for 18-24 hrs.
On the day of testing, primary cultures were started by scraping off 5-10 colonies from the TSAB plates containing clinical strains or the tetracycline supplemented LB plates containing engineered strains. The clinical strain material was suspended in ˜5 mL of cation adjusted Mueller Hinton Broth (CAMHB) in 14 mL culture tubes. The engineered strain material was suspended in CAMHB (supplemented with 25 μg/mL tetracycline) in 14 mL culture tubes. All strains were incubated at 37° C. with aeration (200 rpm) for ˜2 hrs until the optical density at 600 nm (OD600) was ≧0.1.
The two compound components of the assay were each diluted in CAMHB and added to the 96-well broth microdilution assay plates. 50 μL of the β-lactam was added to each well of the assay plate in 2-fold dilutions with final concentrations ranging from 128 to 0.13 μg/mL. 25 μL of the BLI compound was added to all wells in the broth microdilution plates at a final concentration of 4 μg/mL. Inoculum cultures were prepared by standardizing the primary cultures to OD600=0.1 and then adding 20 μL of the adjusted primary culture per 1 mL CAMHB for clinical strains or CAMHB (supplemented with tetracycline at 100 μg/mL) for engineered strains, so that the final inoculum density was ˜10^5 colony forming units per milliliter. Diluted inoculum cultures were used to inoculate 25 μL per well in 96-well broth microdilution assay plates. The final volume of each well was 100 μL and contained a β-lactam at different concentrations, a BLI compound at 4 μg/mL concentration, the bacterial culture at an OD600 of approximately 0.001 and when necessary tetracycline at 25 μg/mL.
Plates were incubated for 18-20 hours at 37° C. with aeration (200 rpm). Following incubation, growth was confirmed visually placing plates over a viewing apparatus (stand with a mirror underneath) and then OD600 was measured using a SpectraMax 340PC384 plate reader (Molecular Devices, Sunnyvale, Calif.). Growth was defined as turbidity that could be detected with the naked eye or achieving minimum OD600 of 0.1. MIC values were defined as the lowest concentration producing no visible turbidity.
The synergy MIC (sMIC) assay determines the concentration of the BLI required to potentiate the activity of a fixed concentration of a β-lactam antibiotic against β-lactamase producing bacterial strains. The experimental protocol was performed according to Clinical and Laboratory Standards Institute (CLSI) guidelines with modifications as described below (CLSI guidelines can be derived from the CLSI document M07-A9 published in January 2012: “Methods for Dilution Antimicrobial Susceptibility Tests for Bacteria That Grow Aerobically; Approved Standard-Ninth Edition”). […]

[2] = tested on: bacterial strains that express the class D cephalosporinase OXA-15; assay: Synergy MIC / standard BLI potentiation MIC assay, strains expressing OXA-15; assay type: cell-based, E. coli; details: in the presence of a β-lactam; comparator Avibactam (comparator compound CCC)
Outline: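 Broth microdilution in CAMHB per CLSI, ~10^5 CFU/mL, 18-20 h at 37° C; MIC is lowest concentration with no visible turbidity. Potentiation: β-lactam 128-0.13 μg/mL with BLI fixed at 4 μg/mL. Synergy: BLI serially diluted with β-lactam fixed. Engineered E. coli kept on 25 μg/mL tetracycline.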

In the case of O=C1N2C[C@@H](CC[C@H]2c2nnc(CCCC3CNC3)o2)N1OS(=O)(=O)O [Compound 743, (2S,5R)-2-(5-(3-(azetidin-3-yl)propyl)-1,3,4-oxadiazol-2-yl)-7-oxo-1,6-diazabicyclo[3.2.1]octan-6-yl hydrogen sulfate], the “activity and/or spectrum of activity against bacterial strains that express KPC β-lactamases, compared with Avibactam” value [1] is reported as “more active than Avibactam” and the “activity against bacterial strains that express the class D cephalosporinase OXA-15, compared with Avibactam” value [2] is reported as “more active than Avibactam”.
In the case of O=C1N2C[C@@H](CC[C@H]2c2nnc(COC3CNC3)o2)N1OS(=O)(=O)O [Compound 744, (2S,5R)-2-(5-((azetidin-3-yloxy)methyl)-1,3,4-oxadiazol-2-yl)-7-oxo-1,6-diazabicyclo[3.2.1]octan-6-yl hydrogen sulfate], the “activity and/or spectrum of activity against bacterial strains that express KPC β-lactamases, compared with Avibactam” value [1] is reported as “more active than Avibactam” and the “activity against bacterial strains that express the class D cephalosporinase OXA-15, compared with Avibactam” value [2] is reported as “more active than Avibactam”.
With O=C1N2C[C@@H](CC[C@H]2c2nnc(CCNC3CNC3)o2)N1OS(=O)(=O)O [Compound 745, (2S,5R)-2-(5-(2-(azetidin-3-ylamino)ethyl)-1,3,4-oxadiazol-2-yl)-7-oxo-1,6-diazabicyclo[3.2.1]octan-6-yl hydrogen sulfate] the “activity and/or spectrum of activity against bacterial strains that express KPC β-lactamases, compared with Avibactam” value [1] was “more active than Avibactam” and the “activity against bacterial strains that express the class D cephalosporinase OXA-15, compared with Avibactam” value [2] was “more active than Avibactam”.
In the case of N=C(N)N1CC(NCc2nnc([C@@H]3CC[C@@H]4CN3C(=O)N4OS(=O)(=O)O)o2)C1 [Compound 746, (2S,5R)-2-(5-(((1-carbamimidoylazetidin-3-yl)amino)methyl)-1,3,4-oxadiazol-2-yl)-7-oxo-1,6-diazabicyclo[3.2.1]octan-6-yl hydrogen sulfate], the “activity and/or spectrum of activity against bacterial strains that express KPC β-lactamases, compared with Avibactam” value [1] is reported as “more active than Avibactam” and the “activity against bacterial strains that express the class D cephalosporinase OXA-15, compared with Avibactam” value [2] is reported as “more active than Avibactam”.
For N=C(N)N[C@H]1C[C@@H](c2nnc([C@@H]3CC[C@@H]4CN3C(=O)N4OS(=O)(=O)O)o2)C1 [Compound 749, (2S,5R)-2-(5-((1s,3R)-3-guanidinocyclobutyl)-1,3,4-oxadiazol-2-yl)-7-oxo-1,6-diazabicyclo[3.2.1]octan-6-yl hydrogen sulfate], the “activity and/or spectrum of activity against bacterial strains that express KPC β-lactamases, compared with Avibactam” value [1] was “more active than Avibactam” and the “activity against bacterial strains that express the class D cephalosporinase OXA-15, compared with Avibactam” value [2] was “more active than Avibactam”.
With O=C1N2C[C@@H](CC[C@H]2c2nnc(C3CC4(CNC4)C3)o2)N1OS(=O)(=O)O [Compound 750, (2S,5R)-2-(5-(2-azaspiro[3,3]heptan-6-yl)-1,3,4-oxadiazol-2-yl)-7-oxo-1,6-diazabicyclo[3.2.1]octan-6-yl hydrogen sulfate] the “activity and/or spectrum of activity against bacterial strains that express KPC β-lactamases, compared with Avibactam” value [1] was “more active than Avibactam” and the “activity against bacterial strains that express the class D cephalosporinase OXA-15, compared with Avibactam” value [2] was “more active than Avibactam”.
With N[C@H]1C[C@H](Cc2nnc([C@@H]3CC[C@@H]4CN3C(=O)N4OS(=O)(=O)O)o2)C1 [Compound 751, (2S,5R)-2-(5-(((1r,3S)-3-aminocyclobutyl)methyl)-1,3,4-oxadiazol-2-yl)-7-oxo-1,6-diazabicyclo[3.2.1]octan-6-yl hydrogen sulfate] the “activity and/or spectrum of activity against bacterial strains that express KPC β-lactamases, compared with Avibactam” value [1] was “more active than Avibactam” and the “activity against bacterial strains that express the class D cephalosporinase OXA-15, compared with Avibactam” value [2] was “more active than Avibactam”.
N=C(N)NC1CC(Cc2nnc([C@@H]3CC[C@@H]4CN3C(=O)N4OS(=O)(=O)O)o2)C1 (stereo partly drawn) [Compound 752, (2S,5R)-2-(5-((3-guanidinocyclobutyl)methyl)-1,3,4-oxadiazol-2-yl)-7-oxo-1,6-diazabicyclo[3.2.1]octan-6-yl hydrogen sulfate] was tested, and the “activity and/or spectrum of activity against bacterial strains that express KPC β-lactamases, compared with Avibactam” value [1] was “more active than Avibactam” and the “activity against bacterial strains that express the class D cephalosporinase OXA-15, compared with Avibactam” value [2] was “more active than Avibactam”.
In the case of N[C@H]1C[C@H](CCc2nnc([C@@H]3CC[C@@H]4CN3C(=O)N4OS(=O)(=O)O)o2)C1 [Compound 753, (2S,5R)-2-(5-(2-((1r,3R)-3-aminocyclobutyl)ethyl)-1,3,4-oxadiazol-2-yl)-7-oxo-1,6-diazabicyclo[3.2.1]octan-6-yl hydrogen sulfate], the “activity and/or spectrum of activity against bacterial strains that express KPC β-lactamases, compared with Avibactam” value [1] is reported as “more active than Avibactam” and the “activity against bacterial strains that express the class D cephalosporinase OXA-15, compared with Avibactam” value [2] is reported as “more active than Avibactam”.
With N[C@H]1C[C@@H](CCc2nnc([C@@H]3CC[C@@H]4CN3C(=O)N4OS(=O)(=O)O)o2)C1 [Compound 754, (2S,5R)-2-(5-(2-((1s,3S)-3-aminocyclobutyl)ethyl)-1,3,4-oxadiazol-2-yl)-7-oxo-1,6-diazabicyclo[3.2.1]octan-6-yl hydrogen sulfate] the “activity and/or spectrum of activity against bacterial strains that express KPC β-lactamases, compared with Avibactam” value [1] was “more active than Avibactam” and the “activity against bacterial strains that express the class D cephalosporinase OXA-15, compared with Avibactam” value [2] was “more active than Avibactam”.
In the case of NC1CC(NCc2nnc([C@@H]3CC[C@@H]4CN3C(=O)N4OS(=O)(=O)O)o2)C1 (stereo partly drawn) [Compound 755, (2S,5R)-2-(5-(((3-aminocyclobutyl)amino)methyl)-1,3,4-oxadiazol-2-yl)-7-oxo-1,6-diazabicyclo[3.2.1]octan-6-yl hydrogen sulfate], the “activity and/or spectrum of activity against bacterial strains that express KPC β-lactamases, compared with Avibactam” value [1] is reported as “more active than Avibactam” and the “activity against bacterial strains that express the class D cephalosporinase OXA-15, compared with Avibactam” value [2] is reported as “more active than Avibactam”.
In the case of N[C@H]1C[C@@H](NCc2nnc([C@@H]3CC[C@@H]4CN3C(=O)N4OS(=O)(=O)O)o2)C1 [Compound 756, (2S,5R)-2-(5-((((1s,3R)-3-aminocyclobutyl)amino)methyl)-1,3,4-oxadiazol-2-yl)-7-oxo-1,6-diazabicyclo[3.2.1]octan-6-yl hydrogen sulfate], the “activity and/or spectrum of activity against bacterial strains that express KPC β-lactamases, compared with Avibactam” value [1] is reported as “more active than Avibactam” and the “activity against bacterial strains that express the class D cephalosporinase OXA-15, compared with Avibactam” value [2] is reported as “more active than Avibactam”.
O=C1N2C[C@@H](CC[C@H]2c2nnc([C@H]3CCNC3)o2)N1OS(=O)(=O)O [Compound 758, (2S,5R)-7-oxo-2-(5-((S)-pyrrolidin-3-yl)-1,3,4-oxadiazol-2-yl)-1,6-diazabicyclo[3.2.1]octan-6-yl hydrogen sulfate] was tested, and the “activity and/or spectrum of activity against bacterial strains that express KPC β-lactamases, compared with Avibactam” value [1] was “more active than Avibactam” and the “activity against bacterial strains that express the class D cephalosporinase OXA-15, compared with Avibactam” value [2] was “more active than Avibactam”.
For O=C1N2C[C@@H](CC[C@H]2c2nnc([C@@H]3CCNC3)o2)N1OS(=O)(=O)O [Compound 759, (2S,5R)-7-oxo-2-(5-((R)-pyrrolidin-3-yl)-1,3,4-oxadiazol-2-yl)-1,6-diazabicyclo[3.2.1]octan-6-yl hydrogen sulfate], the “activity and/or spectrum of activity against bacterial strains that express KPC β-lactamases, compared with Avibactam” value [1] was “more active than Avibactam” and the “activity against bacterial strains that express the class D cephalosporinase OXA-15, compared with Avibactam” value [2] was “more active than Avibactam”.
With N[C@@H]1CN[C@H](c2nnc([C@@H]3CC[C@@H]4CN3C(=O)N4OS(=O)(=O)O)o2)C1 [Compound 760, (2S,5R)-2-(5-((2S,4S)-4-aminopyrrolidin-2-yl)-1,3,4-oxadiazol-2-yl)-7-oxo-1,6-diazabicyclo[3.2.1]octan-6-yl hydrogen sulfate] the “activity and/or spectrum of activity against bacterial strains that express KPC β-lactamases, compared with Avibactam” value [1] was “more active than Avibactam” and the “activity against bacterial strains that express the class D cephalosporinase OXA-15, compared with Avibactam” value [2] was “more active than Avibactam”.

Reference: US20140315876A1, “BETA-LACTAMASE INHIBITORS” (priority 2013, published 2014)
